Reference: patent US5747499A, “Anti-cancer compounds” (British Technology Group Limited, priority 1994, dated 1998)
Like-named read-outs stand apart in the source and are kept apart here.

Assays:
[1] = target: T1, thymidylate synthase (Mus musculus, UniProt P07607); experiment: Test (a): in vitro assay, inhibition of thymidylate synthase (partially purified from L1210 mouse leukaemia cells); format: biochemical
T1 construct: Thymidylate synthase may be obtained in partially purified form from L1210 mouse leukaemia cells; endogenous in cells; host or cells: L1210 mouse leukaemia cells
Excerpt: (a) An in vitro assay which determines the ability of a test compound to inhibit the enzyme thymidylate synthase.

[2] = test system: leukaemia cell line L1210; experiment: Test (b): inhibition of growth of the leukaemia cell line L1210 in cell culture; format: cell-based; details: Mus musculus
Excerpt: (b) An assay which determines the ability of a test compound to inhibit the growth of the leukaemia cell line L1210 in cell culture. The test may be similar to that described in UK Patent Specification No. 2065653B and has been described by Jones et al. (J. Med. Chem., 1985, 28, 1468);

[3] = Cancer Treatment Reports, 1986, 70, 1335; cited from earlier work
[4] = test system: human breast, ovarian and liver cancer; details: in vivo; cited from earlier work
[5] = thymidylate synthase partially purified from L1210 mouse leukaemia cells, read-out: IC50 in test (a)

T1 sequence (P07607 whole entry): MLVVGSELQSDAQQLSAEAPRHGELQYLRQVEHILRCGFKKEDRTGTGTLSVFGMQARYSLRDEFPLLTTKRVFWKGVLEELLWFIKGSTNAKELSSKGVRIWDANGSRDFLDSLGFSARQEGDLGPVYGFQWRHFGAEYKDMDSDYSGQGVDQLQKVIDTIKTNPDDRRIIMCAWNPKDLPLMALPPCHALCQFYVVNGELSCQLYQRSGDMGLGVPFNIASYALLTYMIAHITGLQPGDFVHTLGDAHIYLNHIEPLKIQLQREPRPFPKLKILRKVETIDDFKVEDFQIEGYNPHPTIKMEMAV

Row | IC50 [1, 5] | SMILES | IC50 [1] | IC50 [2] | symptoms of toxicity in humans [3] | activity against human breast, ovarian and liver cancer [4]
1 |  | Cc1nc2cc3c(cc2c(=O)[nH]1)C(N(C)c1ccc(C(=O)N[C@H](C(=O)O)c2ccc(CC(=O)O)cc2)c(F)c1)CC3 (mixture of isomers) [Example 8, (2S)-2-{o-fluoro-p-[N-methyl-N-((6RS)-2-methyl-4-oxo-3,4,7,8-tetrahydro-6H-cyclopenta[g]quinazolin-6-yl)amino]benzamido}-2-[p-(carboxymethyl)phenyl]acetic acid] | 7.6 nM |  |  | 
2 |  | Cc1nc2cc3c(cc2c(=O)[nH]1)C(N(C)c1ccc(C(=O)N[C@@H](CCc2nnn(CC(=O)O)n2)C(=O)O)c(F)c1)CC3 (mixture of isomers) [Example 10, (2S)-2-{o-Fluoro-p-[N-methyl-N-((6RS)-2-methyl-4-oxo-3,4,7,8-tetrahydro-6H-cyclopenta[g]quinazolin-6-yl)amino]benzamido}-4-(2-carboxymethyltetrazol-5-yl)-butyric acid] | 8.8 nM | 1200 nM |  | 
3 |  | Cc1nc2cc3c(cc2c(=O)[nH]1)C(N(C)c1ccc(C(=O)N[C@@H](CCc2nnnn2CC(=O)O)C(=O)O)c(F)c1)CC3 (mixture of isomers) [Example 11, (2S)-2-{o-Fluoro-p-[N-methyl-N-((6RS)-2-methyl-4-oxo-3,4,7,8-tetrahydro-6H-cyclopenta[g]quinazolin-6-yl)amino]benzamido}-4-(1-carboxymethyltetrazol-5-yl)-butyric acid] | 14.8 nM | 23000 nM |  | 
4 |  | Cc1nc2cc3c(cc2c(=O)[nH]1)[C@H](N(C)c1ccc(C(=O)N[C@@H](CCC(=O)N[C@@H](C(=O)O)c2ccc(CC(=O)O)cc2)C(=O)O)c(F)c1)CC3 (mixture of isomers) [Example 12, (2RS)-2-{N-{N-{o-Fluoro-p-[N-methyl-N-((6RS)-2-methyl-4-oxo-3,4,7,8-tetrahydro-6H-cyclopenta[g]quinazolin-6-yl)amino]benzoyl}-L-γ-glutamyl}amino}-2-[p-(carboxymethyl)phenyl]acetic acid] | 4 nM | 3900 nM |  | 
5 |  | C#CCN(c1ccc(C(=O)N[C@@H](CCC(=O)N(C)[C@@H](CCC(=O)O)C(=O)O)C(=O)O)cc1)C1CCc2cc3nc(C)[nH]c(=O)c3cc21 (mixture of isomers) [Example 13, N-{p-[N-((6RS)-2-Methyl-4-oxo-3,4,7,8-tetrahydro-6H-cyclopenta[g]quinazolin-6-yl)-N-(prop-2-ynyl)amino]benzoyl}-L-γ-glutamyl-N-methyl-L-glutamic acid] | 1.42 nM | 2300 nM |  | 
6 |  | C#CCN(c1ccc(C(=O)N[C@@H](CCc2nnnn2CCC(=O)O)C(=O)O)cc1)C1CCc2cc3nc(C)[nH]c(=O)c3cc21 (mixture of isomers) [Example 14, (2S)-2-{p-[N-((6RS)-2-methyl-4-oxo-3,4,7,8-tetrahydro-6H-cyclopenta[g]quinazolin-6-yl)-N-(prop-2-ynyl)amino]benzamido}-4-[1-(2-carboxyethyl)tetrazol-5-yl]butyric acid] | 1.84 nM | 630 nM |  | 
7 | 1.08 nM | C#CCN(c1ccc(C(=O)N[C@@H](CCC(=O)N[C@@H](CCc2nnnn2CC(=O)O)C(=O)O)C(=O)O)cc1)C1CCc2cc3nc(C)[nH]c(=O)c3cc21 (mixture of isomers) [Example 15, (2S)-2-{N-{N-{p-[N-((6RS)-2-Methyl-4-oxo-3,4,7,8-tetrahydro-6H-cyclopenta[g]quinazolin-6-yl)-N-(prop-2-ynyl)amino]benzoyl}-L-γ-glutamyl}amino}-4-(1-carboxymethyltetrazol-5-yl)butyric acid] |  | 7200 nM |  | 
8 | 1.58 nM | C#CCN(c1ccc(C(=O)N[C@@H](CCCS(=O)(=O)c2nnc[nH]2)C(=O)O)cc1)C1CCc2cc3nc(C)[nH]c(=O)c3cc21 (mixture of isomers) [Example 17, (2S)-2-{p-[N-((6RS)-2-methyl-4-oxo-3,4,7,8-tetrahydro-6H-cyclopenta[g]quinazolin-6-yl)-N-(prop-2-ynyl)amino]benzamido}-5-(1H-1,2,4-triazol-3-ylsulphonyl)pentanoic acid] |  | 250 nM |  | 
9 |  | C#CCN(c1ccc(C(=O)N[C@@H](CCC(=O)N[C@H](CCC(=O)O)c2nnn[nH]2)C(=O)O)cc1)C1CCc2cc3nc(C)[nH]c(=O)c3cc21 (mixture of isomers) [Example 18, (4R)-4-{N-{N-{p-[N-((6RS)-2-Methyl-4-oxo-3,4,7,8-tetrahydro-6H-cyclopenta[g]quinazolin-6-yl)-N-(prop-2-ynyl)amino]benzoyl}-L-γ-glutamyl}amino}-4-(tetrazol-5-yl)butyric acid] | 1.08 nM | 860 nM |  | 
10 | 1.84 nM | C#CCN(c1ccc(C(=O)N[C@@H](CCC(=O)N[C@H](C)C(=O)O)C(=O)O)cc1)C1CCc2cc3nc(C)nc(O)c3cc21 (mixture of isomers) [Example 19, N-{N-{p-[N-((6RS)-2-methyl-4-oxo-3,4,7,8-tetrahydro-6H-cyclopenta[g]quinazolin-6-yl)-N-(prop-2-ynyl)amino]benzoyl}-L-γ-glutamyl}-D-alanine] |  | 520 nM |  | 
11 |  | C#CCN(Cc1ccc2nc(N)[nH]c(=O)c2c1)c1ccc(C(=O)N[C@@H](CCC(=O)O)C(=O)O)cc1 [CB3717] |  |  | shows symptoms of toxicity in humans, particularly in relation to the liver and kidneys | promising activity against human breast, ovarian and liver cancer
12 |  | C#CCN(c1ccc(C(=O)N[C@@H](CCc2nnnn2CC(=O)N[C@H](C)C(=O)O)C(=O)O)cc1)C1CCc2cc3nc(C)nc(O)c3cc21 (some centres unmarked) [Example 16] | 3.4 nM | 10000 nM |  | 
